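Protocol summary: plate cells (96-well), add compound at 5 concentrations, incubate 48 h, interpolate endpoints linearly. GI50 = concentration required for 50% inhibition of growth.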 The source made the active and inactive calls. No stated cut-off is given here; in the data, active = GI50 up to about 1.1 µM and inactive = higher.
Assays:
Test in all cases: NCI anticancer screen, dose series, 48 h
K562 = tested on: K562
786-0 = tested on: 786-0
UACC-257 = tested on: UACC-257
CAKI-1 = tested on: CAKI-1
SR = tested on: SR
RPMI-8226 = tested on: RPMI-8226
HL-60 = tested on: HL-60
SF-295 = tested on: SF-295
TK-10 = tested on: TK-10
UO-31 = tested on: UO-31
COLO 205 = tested on: COLO 205
HCC 2998 = tested on: HCC 2998
RXF 393 = tested on: RXF 393
A498 = tested on: A498
HOP-92 = tested on: HOP-92
IGROV-1 = tested on: IGROV-1
HT-29 = tested on: HT-29
A549 = tested on: A549
NCI/ADR-RES = tested on: NCI/ADR-RES
DU-145 = tested on: DU-145

| SMILES | GI50 (K562) | GI50 (786-0) | GI50 (UACC-257) | GI50 (CAKI-1) | GI50 (SR) | GI50 (RPMI-8226) | GI50 (HL-60) | GI50 (SF-295) | GI50 (TK-10) | GI50 (UO-31) | GI50 (COLO 205) | GI50 (HCC 2998) | GI50 (RXF 393) | GI50 (A498) | GI50 (HOP-92) | GI50 (IGROV-1) | GI50 (HT-29) | GI50 (A549) | GI50 (NCI/ADR-RES) | GI50 (DU-145) |
| --- | --- | --- | --- | --- | --- | --- | --- | --- | --- | --- | --- | --- | --- | --- | --- | --- | --- | --- | --- | --- |
| C=C(Cl)C(C)(Cl)CCC(Cl)C(C)C (stereo not given) | 51.5 µM (inactive) | > 100 µM (inactive) | > 100 µM (inactive) | > 100 µM (inactive) | 24.8 µM (inactive) | 48.6 µM (inactive) | 44.3 µM (inactive) | > 100 µM (inactive) | > 100 µM (inactive) | > 100 µM (inactive) | > 100 µM (inactive) | > 100 µM (inactive) | > 100 µM (inactive) | > 100 µM (inactive) | 87.1 µM (inactive) | > 100 µM (inactive) | 66.8 µM (inactive) | > 100 µM (inactive) | > 100 µM (inactive) | > 100 µM (inactive) |
| COCC(=O)OC1CCn2c1nc1c2C(=O)C(C)=C(NC(C)=O)C1=O (stereo not given) | 2.79 µM (inactive) | 6.73 µM (inactive) | 3.97 µM (inactive) | 16.2 µM (inactive) | 1.94 µM (inactive) | 2.33 µM (inactive) | 1.43 µM (inactive) | 16.3 µM (inactive) | 18.2 µM (inactive) | 12.6 µM (inactive) | 15.5 µM (inactive) | 13 µM (inactive) | 3.41 µM (inactive) | 27.9 µM (inactive) | 1.98 µM (inactive) | 14.5 µM (inactive) | 9.93 µM (inactive) | 21.6 µM (inactive) | 4.49 µM (inactive) | 15.3 µM (inactive) |
| COC(=O)c1c(OC(C)=O)ccc2c1c1c(OC(C)=O)c3ccccc3c(OC(C)=O)c1n2Cc1cc(OC)cc(OC)c1 | 11 µM (inactive) | 36.5 µM (inactive) | 25.7 µM (inactive) | 32.1 µM (inactive) | 4.44 µM (inactive) | 3.94 µM (inactive) | 7.78 µM (inactive) | 18.2 µM (inactive) | 66.7 µM (inactive) | 6.76 µM (inactive) | 26.1 µM (inactive) | 2.56 µM (inactive) | 8.81 µM (inactive) | 23.1 µM (inactive) | 1.8 µM (inactive) | 9.1 µM (inactive) | 47.9 µM (inactive) | 6 µM (inactive) | 5.78 µM (inactive) | 38.5 µM (inactive) |
| C[Si](C)(c1ccccc1)[C@H]1CCCC=C1CCNC1c2ccccc2CCc2ccccc21 | 52.1 µM (inactive) | > 100 µM (inactive) | 52.4 µM (inactive) | 73.5 µM (inactive) | 36.6 µM (inactive) | 46.8 µM (inactive) | 1.79 µM (inactive) | 40.6 µM (inactive) | > 100 µM (inactive) | 49.5 µM (inactive) | 38.9 µM (inactive) | > 100 µM (inactive) | 80 µM (inactive) | 69.2 µM (inactive) | 23.7 µM (inactive) | 49.7 µM (inactive) | 28.7 µM (inactive) | 61.8 µM (inactive) | 76.2 µM (inactive) | > 100 µM (inactive) |
| O=C1Nc2ccccc2/C1=N/NC(=O)C(O)(c1ccccc1)c1ccccc1 | 23.2 µM (inactive) | 35.4 µM (inactive) | 22 µM (inactive) | 31.7 µM (inactive) | 21.2 µM (inactive) | 19.6 µM (inactive) | 17.4 µM (inactive) | 18.8 µM (inactive) | 28.8 µM (inactive) | 15.6 µM (inactive) | 18 µM (inactive) | 14.6 µM (inactive) | 14.6 µM (inactive) | 18.3 µM (inactive) | 18.9 µM (inactive) | 19.6 µM (inactive) | 19.5 µM (inactive) | 17.1 µM (inactive) | 23.9 µM (inactive) | 25.1 µM (inactive) |
| CC(C)C(OC(=O)c1cc(NC(=S)c2ccccc2)ccc1Cl)C(C)C | 25.7 µM (inactive) | 16.7 µM (inactive) | 13.7 µM (inactive) | 17.2 µM (inactive) | 11.9 µM (inactive) | 13.3 µM (inactive) | 10.6 µM (inactive) | 4.53 µM (inactive) | 21.5 µM (inactive) | 11.4 µM (inactive) | 16.1 µM (inactive) | 12.4 µM (inactive) | 13.1 µM (inactive) | 21.1 µM (inactive) | 8.39 µM (inactive) | 33 µM (inactive) | 9.31 µM (inactive) | 21 µM (inactive) | 16.3 µM (inactive) | 24.2 µM (inactive) |
| O=CNc1ccc2c(c1)C(=O)c1ccccc1-2 | 81.3 µM (inactive) | 42.9 µM (inactive) | > 100 µM (inactive) | > 100 µM (inactive) | 37.2 µM (inactive) | 61.4 µM (inactive) | 49.1 µM (inactive) | > 100 µM (inactive) | > 100 µM (inactive) | 47.3 µM (inactive) | 67.5 µM (inactive) | > 100 µM (inactive) | 65.2 µM (inactive) | 90.2 µM (inactive) | 72.8 µM (inactive) | 44.1 µM (inactive) | 49 µM (inactive) | > 100 µM (inactive) | > 100 µM (inactive) | 57.8 µM (inactive) |
| O=C(Nc1noc(-c2ccccc2)n1)c1ccccc1CNc1noc(-c2ccccc2)n1 | > 100 µM (inactive) | > 100 µM (inactive) | > 100 µM (inactive) | > 100 µM (inactive) | > 100 µM (inactive) | > 100 µM (inactive) | > 100 µM (inactive) | > 100 µM (inactive) | > 100 µM (inactive) | > 100 µM (inactive) | > 100 µM (inactive) | > 100 µM (inactive) | > 100 µM (inactive) | > 100 µM (inactive) | 62.8 µM (inactive) | > 100 µM (inactive) | > 100 µM (inactive) | > 100 µM (inactive) | > 100 µM (inactive) | > 100 µM (inactive) |
| Nc1onc2c1Cc1c(noc1N)-c1ccccc1-2 | 41.3 µM (inactive) | 79.3 µM (inactive) | 74.3 µM (inactive) | 44.4 µM (inactive) | 35.2 µM (inactive) | 53.7 µM (inactive) | 19.8 µM (inactive) | 65.2 µM (inactive) | > 100 µM (inactive) | 53.6 µM (inactive) | 58.6 µM (inactive) | > 100 µM (inactive) | 58.1 µM (inactive) | 26.7 µM (inactive) | 37.2 µM (inactive) | 54.5 µM (inactive) | 80.4 µM (inactive) | 71 µM (inactive) | > 100 µM (inactive) | > 100 µM (inactive) |
| CC(=O)Nc1ccc(COC(O)CN2CCCCC2)cc1[N+](=O)[O-] (stereo not given) | > 100 µM (inactive) | > 100 µM (inactive) | > 100 µM (inactive) | > 100 µM (inactive) | > 100 µM (inactive) | > 100 µM (inactive) | > 100 µM (inactive) | > 100 µM (inactive) | > 100 µM (inactive) | > 100 µM (inactive) | > 100 µM (inactive) | > 100 µM (inactive) | > 100 µM (inactive) | > 100 µM (inactive) | > 100 µM (inactive) | > 100 µM (inactive) | > 100 µM (inactive) | > 100 µM (inactive) | > 100 µM (inactive) | > 100 µM (inactive) |
| c1c2c(cc3c1OCO3)-c1cc3ccc4c(c3c[n+]1CC2)OCO4 [COPTISINE CHLORIDE] | 0.486 µM (active) | 4.2 µM (inactive) | 1.95 µM (inactive) | > 12.5 µM (inactive) | 0.486 µM (active) | 0.711 µM (active) | 0.406 µM (active) | 0.927 µM (active) | > 12.5 µM (inactive) | 0.857 µM (active) | 3.56 µM (inactive) | 3.85 µM (inactive) | 1.99 µM (inactive) | 4.73 µM (inactive) | 5.57 µM (inactive) | 2.04 µM (inactive) | 5.65 µM (inactive) | 4.44 µM (inactive) | 0.348 µM (active) | 1.3 µM (inactive) |
